Literature values, collected in patent publication US10688072B2, “Misoprostol dispersible tablet” (Azanta Danmark A/S, priority 2014, dated 2020).
Read-outs that look alike come from different tables or passages of the source.

Conditions: 400 μg

CCCCC(C)(O)C/C=C/[C@H]1[C@H](O)CC(=O)[C@@H]1CCCCCCC(=O)OC (mixture of isomers) [misoprostol]
Peak in plasma concentration (oral administration compared with vaginal): larger peak than vaginal administration
Inter-subject variability in % at peak concentration (oral route compared with vaginal): smaller than for vaginal application
Peak in plasma concentration (sublingual administration compared with oral and vaginal): larger peak in plasma concentration of misoprostol than oral and vaginal
Inter-subject variability in % at peak concentration (sublingual route compared with oral and vaginal): smaller following the sublingual route of administration than for oral and vaginal application
